Assay results taken from article PMC12833730, “Discovery of a First‐in‐Class Covalent Allosteric SHP1 Inhibitor with Immunotherapeutic Activity” (Angewandte Chemie (International Ed. in English), 2025).
Entries after “also recorded” stand apart in the source; their conditions may differ. Where two headings read alike, the source gives them in different places.

Key:
MC38 = experiment: CCK8 cytotoxicity; type: cell-based; details: up to 50 µM, 24 hours
Description: (§1) Figure S3. Cancerous cells (MC38, EO771, and B16-F10), non-cancerous cells (HEK293), and immune cells (Jurkat and Raw264.7) were treated with M029 at different doses for 24 hours, and the cell viability was determined by the CCK8 experiments using DMSO-treated cells as a control. […] Results were analyzed using GraphPad Prism 10.4.2. The figure is plotted as average ± standard error of the mean (SEM).
(§2) Cytotoxicity: HEK293, MC38, EO771, RAW264.7 cells in DMEM media [supplemented with 10% (v/v) fetal bovine serum and penicillin (100 units/ml)/streptomycin (100 μg/ml)] and Jurkat T cells in RPMI 1640 media [supplemented with 10% (v/v) fetal bovine serum and penicillin (50 units/ml)/streptomycin (50 μg/ml)] were dispensed in clear flat-bottom 96-well plates at the density of 5,000 cells per well and culture for 16 hours under 37 °C with 5% CO2. M029 of different concentrations or DMSO was added to each well, followed by additional incubation for 24 hours. All wells were then treated with 5 µL of CCK8 reagent (Abcam, #ab228554) followed by 4 hours of incubation. OD460 of the reaction mixture was detected using a Spectra MAX340 microplate spectrophotometer (Molecular Devices) and was used to determine the percent growth inhibition of M029 on each cell line. Data were fitted using Prism GraphPad 10.1.1.

B16-F10 = experiment: CCK8 cytotoxicity; type: cell-based; details: up to 50 µM, 24 hours
Description: as §1, §2

Raw264.7 cells = experiment: CCK8 cytotoxicity; type: cell-based; details: up to 50 µM, 24 hours
Description: as §1, §2

EO771 = experiment: CCK8 cytotoxicity; type: cell-based; details: up to 50 µM, 24 hours
Description: as §1, §2

HEK293 = experiment: CCK8 cytotoxicity; type: cell-based; details: up to 50 µM, 24 hours
Description: as §1, §2

Jurkat T cells = experiment: CCK8 cytotoxicity; type: cell-based; details: up to 50 µM, 24 hours
Description: as §1, §2

Pharmacokinetics in mice = type: in vivo, C57BL/6 mice; set-up: AUC: unit not given here
Description: Given M029's superb potency, selectivity, and target engagement, we considered that these desirable attributes make it a powerful chemical probe for interrogating the roles of SHP1 in biological processes and a promising lead for further development into an SHP1‐targeted therapy. […] To that end, we determined the pharmacokinetic (PK) properties of M029 in mice by administrating the compound via intraperitoneal (IP), intravenous (IV), and oral (PO) routes at a concentration of 25 mg/kg (Figure S4). […] Importantly, M029 is orally bioavailable. […] Moreover, even with the 25 mg/kg oral gavage, the plasma concentration of M029 was maintained several‐fold higher than its biochemical IC50 and two‐fold above its cellular EC50 for Jurkat T cell activation for at least 1 h duration (Figure S4). These PK properties ensure that adequate M029 compound exposure can be achieved to assess the effect of SHP1 inhibition in vivo.
Figure S4. Pharmacokinetic parameters of M029. Curves of (A) PO, (B) IP, (C) IV dosage of M029 at 25 mg/kg in WT C57BL/6 mice. Results were analyzed using GraphPad Prism 10.4.2. The figure is plotted as average ± standard error of the mean (SEM).
All the in vivo studies were performed under an animal protocol (1511001324) approved by the Institutional Animal Care & Use Committee of Purdue University, in accordance with the recommendations in the Guide for the Care and Use of Laboratory Animals of the National Institutes of Health. For PK study, C57BL6 female mice (25-30g body weight) were injected intraperitoneally, orally, or intravenously with 25 mg/kg M029 dissolved in 0.4 ml saline. Blood samples were collected through the tail vein at the indicated time points after injection. Isoflurane was used as an anesthetic. All blood samples were centrifuged at 1,500 g for 5 minutes, and plasma was separated and stored at –80°C until analysis by a validated method based on reversed-phase liquid chromatography coupled to mass-spectrometric detection (LC/MS) using a previously published procedure.^169 For the MC38 syngeneic tumor study, 12-week-old C57BL6 female mice were injected subcutaneously with […] MC38 cells in the right and left flanks for tumor growth. When tumors reached an average volume of 100 mm^3 mice were tumor size-matched and randomly assigned to different experimental groups for experiments. Four mice with eight tumors were used in each treatment group. Mice were injected orally with saline or 25 or 100 mg/kg M029 daily. Tumor sizes and animal weights were measured twice per week. Tumor volume (mm^3) = (length X width^2)/2. At the end of the experiments, mice were euthanized, and tumors were collected for analysis. Among eight tumors collected from each group, four homogenous samples and […] were prepared for Western blots and histology analysis.

SHP1 = molecular target: T1, SHP1 (Homo sapiens, UniProt P29350); experiment: Vanadate protection jump-dilution experiment; type: biochemical
T1 construct: SHP1, residues 245-543; made in house; host or cells: E. coli BL21(DE3)
Description: To further understand the mode of M029 action and ascertain whether M029 binds the SHP1 active site or a yet undefined novel site in SHP1, we performed a vanadate (VO4 ^3−) protection experiment. Vanadate is a reversible and competitive PTP inhibitor,^[ [76], [77] ^] and thus excessive vanadate would be expected to fully occupy the PTP active site and prevent covalent modifications of residues within the active site pocket. In this assay, SHP1 was co‐incubated with 30 µM M029 and 500 µM sodium orthovanadate or vehicle control for 30 min. The SHP1‐inhibitor complex was then rapidly diluted 100‐fold into a buffered solution containing 10 mM pNPP, and immediately, the absorbance at 405 nm was monitored over time to determine the remaining phosphatase activity.

T1 sequence (P29350 245-543): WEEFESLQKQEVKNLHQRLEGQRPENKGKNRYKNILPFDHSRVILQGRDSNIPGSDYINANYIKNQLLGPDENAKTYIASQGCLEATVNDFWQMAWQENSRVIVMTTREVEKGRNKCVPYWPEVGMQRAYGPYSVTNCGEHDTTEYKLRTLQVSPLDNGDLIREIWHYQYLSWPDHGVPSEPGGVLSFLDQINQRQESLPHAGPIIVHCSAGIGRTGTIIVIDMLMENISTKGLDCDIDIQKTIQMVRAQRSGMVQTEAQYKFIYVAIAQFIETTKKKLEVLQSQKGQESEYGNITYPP

## N#Cc1ccsc1NS(=O)(=O)c1ccc(NC(=O)CCl)cc1 [M029, 2-Chloro-N-(4-(N-(3-cyanothiophen-2-yl)sulfamoyl)phenyl)acetamide]
MC38
  cytotoxicity, MC38: No significant toxicity; also recorded: no significant cytotoxicity
B16-F10
  cytotoxicity, B16-F10: No significant toxicity; also recorded: no significant cytotoxicity
Raw264.7 cells
  cytotoxicity, Raw264.7: No significant toxicity; also recorded: no significant cytotoxicity
EO771
  cytotoxicity, EO771: No significant toxicity; also recorded: no significant cytotoxicity
HEK293
  cytotoxicity, HEK293: No significant toxicity; also recorded: no significant cytotoxicity
Jurkat T cells
  cytotoxicity, Jurkat T cells: No significant toxicity; also recorded: no significant cytotoxicity
Pharmacokinetics in mice; 25 mg/kg oral gavage
  duration plasma concentration above biochemical IC50 and two-fold above cellular EC50: at least 1 h
Pharmacokinetics in mice; female, C57BL/6, mouse, plasma, 25 mg/kg oral, read-out: AUC, oral
  AUC: 1410
Pharmacokinetics in mice; female, C57BL/6, mouse, plasma, 25 mg/kg oral, read-out: Cmax, oral
  Cmax: 29.8 ± 7.1 µM
Pharmacokinetics in mice; female, C57BL/6, mouse, plasma, 25 mg/kg oral, read-out: t1/2, oral
  half-life: 38.5 ± 7.6 min
Pharmacokinetics in mice; female, C57BL/6, mouse, plasma, ip, 25 mg/kg intraperitoneal, read-out: area under the curve (AUC), IP
  AUC: 5090
Pharmacokinetics in mice; female, C57BL/6, mouse, plasma, ip, 25 mg/kg intraperitoneal, read-out: half-life (t1/2), IP
  half-life: 36.3 ± 5.7 min
Pharmacokinetics in mice; female, C57BL/6, mouse, plasma, ip, 25 mg/kg intraperitoneal, read-out: peak plasma concentration (Cmax), IP
  Cmax: 122 ± 28.2 µM
Pharmacokinetics in mice; female, C57BL/6, mouse, plasma, po, 25 mg/kg, read-out: oral bioavailability (%F)
  bioavailability: 18%
SHP1; 30 µM M029 + 500 µM sodium orthovanadate, 30 min, 100-fold dilution
  SHP1 protection from inactivation by vanadate: did not show a significant difference; also recorded: not protected from M029 inactivation
SHP1; 30 µM M029, 30 min
  residual phosphatase activity after 100-fold jump dilution, compound alone: Little residual phosphatase activity
